Assay results: ChEMBL document CHEMBL4715873, “A novel synthetic acanthoic acid analogues and their cytotoxic activity in cholangiocarcinoma cells” (Bioorg Med Chem, 2021)

Columns and labels:
[1] = Cytotoxicity against human KKU-100 cells assessed as growth inhibition incubated for 48 hrs by MTT assay; type: functional, cell-based; conditions: KKU100, 48 h
[2] = Cytotoxicity against human KKU-213 cells assessed as growth inhibition incubated for 48 hrs by MTT assay; type: functional, cell-based, KKUM213; conditions: KKU-M213, 48 h
[3] = Cytotoxicity against human KKU-214 cells assessed as growth inhibition incubated for 48 hrs by MTT assay; type: functional, cell-based, KKUM214; conditions: KKU-M214, 48 h
[4] = Cytotoxicity against human KKU-055 cells assessed as growth inhibition incubated for 48 hrs by MTT assay; type: functional, cell-based, KKUM055; conditions: KKU-M055, 48 h
[5] = Cytotoxicity against human PBMC assessed as growth inhibition incubated for 48 hrs by MTT assay
[6] = Potency index, ratio of acid IC50 to compound IC50 for cytotoxicity against human KKU-213 cells assessed as growth inhibition incubated for 48 hrs by MTT assay; type: functional, KKUM213

Structure (SMILES)	IC50 [1]	IC50 [2]	IC50 [3]	IC50 [4]	IC50 [5]	Ratio IC50 [6]
C=C[C@@]1(C)CC=C2[C@@H](CC[C@@H]3[C@](C)(C(=O)OCc4cn(Cc5ccc(C)cc5)nn4)CCC[C@@]23C)C1	> 50 µM	47 µM	39 µM	> 50 µM		
C#CCOC(=O)[C@]1(C)CCC[C@@]2(C)C3=CC[C@](C)(C=C)C[C@@H]3CC[C@H]12	> 50 µM	31 µM	34 µM	37 µM	71 µM	
C=C[C@@]1(C)CC=C2[C@@H](CC[C@@H]3[C@](C)(C(=O)OCc4cn(Cc5ccc(Br)cc5)nn4)CCC[C@@]23C)C1	> 50 µM	> 50 µM	> 50 µM	> 50 µM		
C=C[C@@]1(C)CC=C2[C@@H](CC[C@@H]3[C@](C)(C(=O)OCCCC)CCC[C@@]23C)C1	> 50 µM	37 µM	> 50 µM	49 µM		
C=C[C@@]1(C)CC=C2[C@@H](CC[C@@H]3[C@](C)(C(=O)OCc4ccc(Br)cc4)CCC[C@@]23C)C1	> 50 µM	41 µM	41 µM	> 50 µM		
C=C[C@@]1(C)CC=C2[C@@H](CC[C@@H]3[C@](C)(C(=O)OCc4ccc(Cl)cc4)CCC[C@@]23C)C1	> 50 µM	> 50 µM	> 50 µM	> 50 µM		
C=C[C@@]1(C)CC=C2[C@@H](CC[C@@H]3[C@](C)(C(=O)OCc4ccccc4F)CCC[C@@]23C)C1	> 50 µM	35 µM	> 50 µM	47 µM		
C=C[C@@]1(C)CC=C2[C@@H](CC[C@@H]3[C@](C)(C(=O)OCc4cn(Cc5ccc(OC)cc5)nn4)CCC[C@@]23C)C1	> 50 µM	> 50 µM	> 50 µM	> 50 µM		
C=C[C@@]1(C)CC=C2[C@@H](CC[C@@H]3[C@](C)(C(=O)OCc4cn(Cc5ccccc5F)nn4)CCC[C@@]23C)C1	> 50 µM	> 50 µM	> 50 µM	> 50 µM		
C=C[C@@]1(C)CC=C2[C@@H](CC[C@@H]3[C@](C)(C(=O)OCc4cn(Cc5ccc(Cl)cc5)nn4)CCC[C@@]23C)C1	> 50 µM	> 50 µM	39 µM	> 50 µM		
C=C[C@@]1(C)CC=C2[C@@H](CC[C@@H]3[C@](C)(C(=O)OCc4ccc(C)cc4)CCC[C@@]23C)C1	> 50 µM	> 50 µM	> 50 µM	> 50 µM		
C=C[C@@]1(C)CC=C2[C@@H](CC[C@@H]3[C@](C)(C(=O)OCc4ccc(OC)cc4)CCC[C@@]23C)C1	> 50 µM	> 50 µM	> 50 µM	> 50 µM		
C=C[C@@]1(C)CC=C2[C@@H](CC[C@@H]3[C@](C)(C(=O)OCc4ccc([N+](=O)[O-])cc4)CCC[C@@]23C)C1	> 50 µM	> 50 µM	> 50 µM	> 50 µM		
C=C[C@@]1(C)CC=C2[C@@H](CC[C@@H]3[C@](C)(C(=O)OCc4ccc(F)cc4)CCC[C@@]23C)C1	> 50 µM	38 µM	> 50 µM	> 50 µM		
C=C[C@@]1(C)CC=C2[C@@H](CC[C@@H]3[C@](C)(C(=O)OCc4cn(CCCCCCCC)nn4)CCC[C@@]23C)C1	> 50 µM	37 µM	38 µM	48 µM		
C=CCOC(=O)[C@]1(C)CCC[C@@]2(C)C3=CC[C@](C)(C=C)C[C@@H]3CC[C@H]12	> 50 µM	> 50 µM	> 50 µM	> 50 µM		
C=C[C@@]1(C)CC=C2[C@@H](CC[C@@H]3[C@](C)(C(=O)OCc4cn(Cc5cccc(F)c5)nn4)CCC[C@@]23C)C1	> 50 µM	> 50 µM	> 50 µM	> 50 µM		
C=C[C@@]1(C)CC=C2[C@@H](CC[C@@H]3[C@](C)(C(=O)OCc4ccccc4)CCC[C@@]23C)C1	> 50 µM	> 50 µM	> 50 µM	> 50 µM		
C=C[C@@]1(C)CC=C2[C@@H](CC[C@@H]3[C@](C)(C(=O)OCc4cccc(F)c4)CCC[C@@]23C)C1	> 50 µM	28 µM	> 50 µM	41 µM	163 µM	
C=C[C@@]1(C)CC=C2[C@@H](CC[C@@H]3[C@](C)(C(=O)OCCCCCCCC)CCC[C@@]23C)C1	> 50 µM	> 50 µM	> 50 µM	> 50 µM		
C=C[C@@]1(C)CC=C2[C@@H](CC[C@@H]3[C@](C)(C(=O)OCc4cn(Cc5ccc([N+](=O)[O-])cc5)nn4)CCC[C@@]23C)C1	> 50 µM	18 µM	21 µM	33 µM	> 200 µM	8
C=C[C@@]1(C)CC=C2[C@@H](CC[C@@H]3[C@](C)(C(=O)OCc4cn(Cc5ccc(F)cc5)nn4)CCC[C@@]23C)C1	> 50 µM	> 50 µM	> 50 µM	> 50 µM		
C=C[C@@]1(C)CC=C2[C@@H](CC[C@@H]3[C@](C)(C(=O)OCc4cn(Cc5ccccc5)nn4)CCC[C@@]23C)C1	> 50 µM	40 µM	41 µM	47 µM		
C=C[C@@]1(C)CC=C2[C@@H](CC[C@@H]3[C@](C)(C(=O)O)CCC[C@@]23C)C1	174 µM	149 µM	168 µM	120 µM		
O=C(NC1=CC(=O)[C@H]2O[C@H]2[C@H]1O)c1ccccc1O [DEHYDROXYMETHYLEPOXYQUINOMICIN]		19 µM	19 µM			
